Source: ChEMBL document CHEMBL4118146, “Design, synthesis and evaluation of substituted piperidine based KCNQ openers as novel antiepileptic agents” (Bioorg Med Chem Lett, 2018)

Target: T1, Potassium voltage-gated channel subfamily KQT member 2 (Homo sapiens, UniProt O43526)
Experiment: Activation of KCNQ2 (unknown origin) expressed in CHO cells at 10 uM incubated for 20 mins in dark measured every 2 secs for 10 secs by fluorescence-based thallium influx assay relative to control
Format: cell-based
Conditions: not given

T1 sequence (O43526 whole entry): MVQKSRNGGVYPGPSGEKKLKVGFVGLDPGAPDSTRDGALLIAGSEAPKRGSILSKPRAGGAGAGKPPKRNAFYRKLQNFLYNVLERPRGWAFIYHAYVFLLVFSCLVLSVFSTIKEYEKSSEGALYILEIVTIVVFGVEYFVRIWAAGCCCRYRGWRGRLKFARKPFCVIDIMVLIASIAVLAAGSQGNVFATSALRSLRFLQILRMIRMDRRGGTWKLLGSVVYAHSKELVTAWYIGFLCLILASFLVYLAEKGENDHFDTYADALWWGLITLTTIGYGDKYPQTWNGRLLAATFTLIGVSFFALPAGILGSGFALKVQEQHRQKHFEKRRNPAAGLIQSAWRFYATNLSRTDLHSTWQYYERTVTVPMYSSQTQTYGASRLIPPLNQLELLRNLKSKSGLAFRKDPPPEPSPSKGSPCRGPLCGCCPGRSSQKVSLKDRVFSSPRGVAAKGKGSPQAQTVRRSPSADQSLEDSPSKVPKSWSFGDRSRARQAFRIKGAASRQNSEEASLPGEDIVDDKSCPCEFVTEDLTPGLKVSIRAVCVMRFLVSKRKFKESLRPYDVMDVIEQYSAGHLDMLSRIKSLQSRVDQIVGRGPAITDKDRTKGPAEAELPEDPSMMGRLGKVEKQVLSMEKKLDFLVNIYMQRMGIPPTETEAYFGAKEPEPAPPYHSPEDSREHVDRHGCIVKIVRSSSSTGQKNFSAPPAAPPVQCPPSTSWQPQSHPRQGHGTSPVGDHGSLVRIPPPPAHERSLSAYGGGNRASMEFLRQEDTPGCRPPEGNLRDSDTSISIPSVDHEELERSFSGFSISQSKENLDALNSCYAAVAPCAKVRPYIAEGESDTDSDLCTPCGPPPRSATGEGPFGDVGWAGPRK

Which Activity does the source give for `Cc1cc(N2CCC(c3ccc(C(F)(F)F)cc3)CC2)cc(C)c1NC(=O)CC(C)(C)C` here?
Its Activity is 41.2%.

Which Activity does the source give for `Cc1cc(N2CCC(c3ccccc3C(F)(F)F)CC2)cc(C)c1NC(=O)CC(C)(C)C` here?
Its Activity is -47.2%.

For `Cc1cc(CN2CCc3ccccc3C2)cc(C)c1NC(=O)CC(C)(C)C`, which Activity is on record?
Its Activity is 5.11%.

For `Cc1cc(N2CCC(c3ccccc3F)CC2)cc(C)c1NC(=O)CC(C)(C)C`, which Activity is on record?
The Activity was 44%.

With `Cc1cc(C2CCCCN2)cc(C)c1NC(=O)CC(C)(C)C` (stereo not given) as the molecule, how does the Activity read?
Its Activity is 0.83%.

Which Activity does the source give for `Cc1cc(N2CCC(c3ccncc3)CC2)cc(C)c1NC(=O)CC(C)(C)C` here?
Its Activity is 29.7%.

Which Activity does the source give for `Cc1cc(N2CCC(c3cccnc3)CC2)cc(C)c1NC(=O)CC(C)(C)C` here?
Its Activity is 42.6%.

For `Cc1cc(N2CCC(=O)CC2)cc(C)c1NC(=O)CC(C)(C)C`, which Activity is on record?
The Activity was 110%.

For `Cc1cc(CN2CCCc3ccccc32)cc(C)c1NC(=O)CC(C)(C)C`, which Activity is on record?
Its Activity is 139%.

With `Cc1cc(N2CCC(C)(C)CC2)cc(C)c1NC(=O)CC(C)(C)C` as the molecule, how does the Activity read?
Its Activity is 100%.

For `Cc1cc(N2CCC(c3cccc(C(F)(F)F)c3)CC2)cc(C)c1NC(=O)CC(C)(C)C`, which Activity is on record?
The Activity was 149%.

For `Cc1cc(N2CCCCC2)cc(C)c1NC(=O)CC(C)(C)C`, which Activity is on record?
Its Activity is 69.8%.

For `Cc1cc(N2CCC(c3ccccc3)CC2)cc(C)c1NC(=O)CC(C)(C)C`, which Activity is on record?
The Activity was 0.63%.

Which Activity does the source give for `Cc1cc(N2CCC(c3ccc(Cl)cc3)CC2)cc(C)c1NC(=O)CC(C)(C)C` here?
Its Activity is 88.3%.

With `Cc1cc(N2CCC(N3CCOCC3)CC2)cc(C)c1NC(=O)CC(C)(C)C` as the molecule, how does the Activity read?
The Activity was 1.13%.

Which Activity does the source give for `Cc1cc(N2CCN(c3ccccn3)CC2)cc(C)c1NC(=O)CC(C)(C)C` here?
The Activity was 0.28%.

Which Activity does the source give for `Cc1cc(N2CCC(c3cccc(F)c3)CC2)cc(C)c1NC(=O)CC(C)(C)C` here?
Its Activity is 152%.

For `CCOC(=O)Nc1ccc(NCc2ccc(F)cc2)cc1N` [EZOGABINE], which Activity is on record?
Its Activity is 40.2%.

For `Cc1cc(N2CCN(c3cccc(C(F)(F)F)c3)CC2)cc(C)c1NC(=O)CC(C)(C)C`, which Activity is on record?
Its Activity is 52.1%.

Which Activity does the source give for `Cc1cc(N2CCN(c3ccc(C(F)(F)F)cc3)CC2)cc(C)c1NC(=O)CC(C)(C)C` here?
The Activity was 88.3%.

With `Cc1cc(N2CCC(N3CCCCC3)CC2)cc(C)c1NC(=O)CC(C)(C)C` as the molecule, how does the Activity read?
Its Activity is 0.02%.

With `Cc1cc(CN2CCCCC2)cc(C)c1NC(=O)CC(C)(C)C` as the molecule, how does the Activity read?
The Activity was 10.3%.

For `Cc1cc(N2CCC(c3cccc(Cl)c3)CC2)cc(C)c1NC(=O)CC(C)(C)C`, which Activity is on record?
Its Activity is 168%.

Tested on: not listed separately
Experiment: Clearance in Sprague-Dawley rat at 1 mg/kg, iv measured over 24 hrs by LC/MS/MS method
Format: ADME, organism-based
Conditions: in vivo

Which clearance does the source give for `Cc1cc(N2CCC(c3cccc(F)c3)CC2)cc(C)c1NC(=O)CC(C)(C)C` here?
Its clearance is 2 mL/min/kg.

Tested on: not listed separately
Experiment: MRTlast in Sprague-Dawley rat at 1 mg/kg, iv measured over 24 hrs by LC/MS/MS method
Format: ADME, organism-based
Conditions: in vivo

For `Cc1cc(N2CCC(c3cccc(F)c3)CC2)cc(C)c1NC(=O)CC(C)(C)C`, which MRT last at 24 h is on record?
Its MRT last at 24 h is 2.61 h.

Tested on: not listed separately
Experiment: Apparent volume of distribution in Sprague-Dawley rat at 1 mg/kg, iv measured over 24 hrs by LC/MS/MS method
Format: ADME, organism-based
Conditions: in vivo, read-out: Vd(app)

For `Cc1cc(N2CCC(c3cccc(F)c3)CC2)cc(C)c1NC(=O)CC(C)(C)C`, which Vd is on record?
Its Vd is 0.24 L/kg.

Tested on: not listed separately
Experiment: Half life in Sprague-Dawley rat at 1 mg/kg, iv measured over 24 hrs by LC/MS/MS method
Format: ADME, organism-based
Conditions: in vivo

For `Cc1cc(N2CCC(c3cccc(F)c3)CC2)cc(C)c1NC(=O)CC(C)(C)C`, which half-life is on record?
Its half-life is 1.38 h.

Tested on: not listed separately
Experiment: Tmax in Sprague-Dawley rat at 1 mg/kg, iv measured over 24 hrs by LC/MS/MS method
Format: ADME, organism-based
Conditions: in vivo

For `Cc1cc(N2CCC(c3cccc(F)c3)CC2)cc(C)c1NC(=O)CC(C)(C)C`, which Tmax is on record?
Its Tmax is 1.8 min.

Tested on: not listed separately
Experiment: AUClast in Sprague-Dawley rat at 1 mg/kg, iv measured over 24 hrs by LC/MS/MS method
Format: ADME, organism-based
Set-up: dose 1 mg/kg, time 0 - last, route intravenous
Conditions: in vivo

Which AUC(0-t) at 24 h does the source give for `Cc1cc(N2CCC(c3cccc(F)c3)CC2)cc(C)c1NC(=O)CC(C)(C)C` here?
Its AUC(0-t) at 24 h is 8360 ng·h/mL.

Target: T1, Potassium voltage-gated channel subfamily KQT member 2
Experiment: Activation of KCNQ2 (unknown origin) expressed in CHO cells at 10 uM incubated for 20 mins in dark measured every 2 secs for 10 secs by fluorescence-based thallium influx assay relative to retigabine
Format: cell-based
Conditions: not given

Which fold change (FC) does the source give for `Cc1cc(CN2CCCc3ccccc32)cc(C)c1NC(=O)CC(C)(C)C` here?
The fold change (FC) was 3.5.

Which fold change (FC) does the source give for `Cc1cc(N2CCC(c3cccc(C(F)(F)F)c3)CC2)cc(C)c1NC(=O)CC(C)(C)C` here?
Its fold change (FC) is 3.7 to 42.

For `Cc1cc(N2CCC(c3cccc(F)c3)CC2)cc(C)c1NC(=O)CC(C)(C)C`, which fold change (FC) is on record?
The fold change (FC) was 3.7 to 42.

Which fold change (FC) does the source give for `Cc1cc(N2CCC(c3cccc(Cl)c3)CC2)cc(C)c1NC(=O)CC(C)(C)C` here?
The fold change (FC) was 3.7 to 42.

Target: T1, Potassium voltage-gated channel subfamily KQT member 2
Experiment: Activation of KCNQ2 (unknown origin) expressed in CHO cells assessed as conductivity (I/I0) at 10 uM by electrophysiological patch-clamp test
Format: cell-based
Conditions: not given

For `Cc1cc(CN2CCCc3ccccc32)cc(C)c1NC(=O)CC(C)(C)C`, which Ratio is on record?
The Ratio was 2.76.

For `Cc1cc(N2CCC(C)(C)CC2)cc(C)c1NC(=O)CC(C)(C)C`, which Ratio is on record?
Its Ratio is 1.53.

With `CCOC(=O)Nc1ccc(NCc2ccc(F)cc2)cc1N` [EZOGABINE] as the molecule, how does the Ratio read?
Its Ratio is 2.12.

Tested on: not listed separately
Experiment: Cmax in Sprague-Dawley rat at 1 mg/kg, iv measured over 24 hrs by LC/MS/MS method
Format: ADME, organism-based
Set-up: dose 1 mg/kg, route intravenous
Conditions: in vivo

For `Cc1cc(N2CCC(c3cccc(F)c3)CC2)cc(C)c1NC(=O)CC(C)(C)C`, which Cmax is on record?
The Cmax was 9110 ng/mL.

Target: T1, Potassium voltage-gated channel subfamily KQT member 2
Experiment: Activation of KCNQ2 (unknown origin) expressed in CHO cells assessed as half-maximum activation voltage left shift at 10 uM by electrophysiological patch-clamp test
Format: cell-based
Conditions: not given

For `Cc1cc(CN2CCCc3ccccc32)cc(C)c1NC(=O)CC(C)(C)C`, which Activity is on record?
The Activity was 13.3 mV.

With `Cc1cc(N2CCC(C)(C)CC2)cc(C)c1NC(=O)CC(C)(C)C` as the molecule, how does the Activity read?
Its Activity is 25 mV.

With `CCOC(=O)Nc1ccc(NCc2ccc(F)cc2)cc1N` [EZOGABINE] as the molecule, how does the Activity read?
Its Activity is 40 mV.

Target: T1, Potassium voltage-gated channel subfamily KQT member 2
Experiment: Activation of KCNQ2 (unknown origin) expressed in CHO cells at 10 uM after 10 mins by atomic absorption spectrophotometry-based Rb+ flow assay
Format: cell-based
Conditions: not given

With `Cc1cc(N2CCC(=O)CC2)cc(C)c1NC(=O)CC(C)(C)C` as the molecule, how does the EC50 read?
Its EC50 is 130 nM.

And the Efficacy?
The Efficacy was 148%.

Which EC50 does the source give for `Cc1cc(CN2CCCc3ccccc32)cc(C)c1NC(=O)CC(C)(C)C` here?
The EC50 was 330 nM.

What about the Efficacy of the same molecule?
Its Efficacy is 160%.

Which EC50 does the source give for `Cc1cc(N2CCC(C)(C)CC2)cc(C)c1NC(=O)CC(C)(C)C` here?
The EC50 was 1580 nM.

What about the Efficacy of the same molecule?
Its Efficacy is 210%.

Which EC50 does the source give for `Cc1cc(N2CCC(c3cccc(F)c3)CC2)cc(C)c1NC(=O)CC(C)(C)C` here?
The EC50 was 220 nM.

And the Efficacy?
Its Efficacy is 180%.

Which EC50 does the source give for `CCOC(=O)Nc1ccc(NCc2ccc(F)cc2)cc1N` [EZOGABINE] here?
The EC50 was 350 nM.

What about the Efficacy of the same molecule?
The Efficacy was 210%.
